The source of these data is patent US9937115B2, “Oral care compositions with improved flavor” (priority 2010, dated 2018).

Where a name gives a salt, the structure may show the parent alone. Read-outs that look alike come from different tables or passages of the source.

The target in this experiment is T1, TRPA1 receptor (Homo sapiens, UniProt O75762).
T1 construct: expressed in transfected cells; host or cells: HEK cell line
Put plainly: cell-based. The arrangement: activation: dose or concentration left out as unconfirmed. The procedure:
The term “TRPA1 activator” as used herein refers to any component which at a concentration of 1 mM gives a calcium flux count of at least 1000 counts above the background level of calcium present in the cell according to the FLIPR method as discussed herein. The term “count” is defined as the change in fluorescence of the transfected cell lines due to the influx of calcium across the cell membrane, which reacts with the calcium sensitive dye present within the cells.
In order to select TRPA1 agonists that would be preferred for reducing off-tasting chemical components found in oral care compositions, calcium flux receptor activity on the TRPA1 was utilized as the criteria for selection of actives. With allyl isothiocyanate as the TRPA1 positive control, molecules that directly activated the TRPA1 receptor were screened in dimethylsulfoxide (DMSO). Pure molecules of each material were dissolved in DMSO at a concentration of 100 micormolar and then added to an HEK cell line containing the TRPA1 receptor. If they are TRPA1 agonists, they will cause a calcium flux in the cell which fluoresces and may then be measured using a FLIPR machine.

Where [1] appears, read: HEK293, percentage of the control (allyl isothiocyanate) calcium count, material dissolved in DMSO at 100 micromolar, HEK cells with TRPA1, direct addition, read-out: TRPA1 Direct addition.
Setting [2] is: HEK293, percentage of the control (allyl isothiocyanate) calcium count, material dissolved in DMSO at 100 micromolar, HEK cells with TRPA1, pre-incubation, read-out: TRPA1 Pre-incubation.
[3] abbreviates: HEK293, read-out: TRPA1 Direct addition.
[4] abbreviates: HEK293, read-out: TRPA1 Pre-incubation.
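Throughout, for TRPA1 Pre-incubation: values above 100 mean more active than the control.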

T1 sequence (O75762 whole entry): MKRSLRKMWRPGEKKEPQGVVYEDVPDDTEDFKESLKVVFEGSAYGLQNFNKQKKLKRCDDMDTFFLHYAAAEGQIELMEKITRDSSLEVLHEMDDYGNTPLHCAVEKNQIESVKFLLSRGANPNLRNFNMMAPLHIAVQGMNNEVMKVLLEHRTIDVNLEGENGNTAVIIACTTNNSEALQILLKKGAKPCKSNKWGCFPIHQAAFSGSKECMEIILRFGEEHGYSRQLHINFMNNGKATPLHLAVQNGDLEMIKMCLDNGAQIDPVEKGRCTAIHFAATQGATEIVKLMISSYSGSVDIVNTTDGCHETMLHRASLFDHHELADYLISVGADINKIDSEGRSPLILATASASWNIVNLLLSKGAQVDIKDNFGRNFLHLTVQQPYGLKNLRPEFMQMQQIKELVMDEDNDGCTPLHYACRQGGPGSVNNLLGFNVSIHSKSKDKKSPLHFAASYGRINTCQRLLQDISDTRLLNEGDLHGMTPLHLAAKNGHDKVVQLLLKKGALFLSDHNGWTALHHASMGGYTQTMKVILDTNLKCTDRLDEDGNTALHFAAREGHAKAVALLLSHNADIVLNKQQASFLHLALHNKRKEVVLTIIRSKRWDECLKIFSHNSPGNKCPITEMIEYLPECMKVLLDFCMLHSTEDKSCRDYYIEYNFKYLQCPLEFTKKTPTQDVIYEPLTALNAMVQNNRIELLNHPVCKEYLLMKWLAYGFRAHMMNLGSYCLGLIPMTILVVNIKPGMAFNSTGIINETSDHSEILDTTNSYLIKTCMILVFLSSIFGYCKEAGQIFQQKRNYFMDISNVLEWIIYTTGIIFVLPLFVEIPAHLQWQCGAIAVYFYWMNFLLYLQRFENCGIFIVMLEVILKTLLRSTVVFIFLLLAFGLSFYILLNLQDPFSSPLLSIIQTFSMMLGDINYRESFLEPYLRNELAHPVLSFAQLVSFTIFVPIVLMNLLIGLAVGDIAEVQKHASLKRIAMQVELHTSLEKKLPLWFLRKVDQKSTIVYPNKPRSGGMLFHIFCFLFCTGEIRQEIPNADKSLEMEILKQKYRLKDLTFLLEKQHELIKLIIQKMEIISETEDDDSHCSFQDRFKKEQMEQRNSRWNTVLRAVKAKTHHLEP

As for `CC(=O)OC(C)c1ccccc1` (stereo not drawn) [Alpha-Methylbenzyl Acetate], under setting [1], the activation at 100 µM was found to be 1.45%. Further, the activation under setting [2] worked out at 70.8%.

As to `CCCCCC(=O)OCC` [Ethyl Hexanoate], the activation at 100 µM under setting [1] is 0.41%. For the same compound, under setting [2], the activation was determined as 92.3%.

On to `CCCC(=O)OCc1ccccc1` [Benzyl Butyrate], for which the activation at 100 µM under setting [1] was -3.01%. For the same compound, under setting [2], the activation is 58.7%.

Consider `Cc1ncsc1CCO` [4-Methyl-5-Thiazoleethanol], for which, under setting [1], the activation at 100 µM came out at 0.56%. Moreover, the activation under setting [2] came out at 72.8%.

On to `COc1cccc(OC)c1O` [2,6-Dimethoxyphenol], for which the activation at 100 µM under setting [1] was -0.24%. Moreover, the activation under setting [2] is 71.6%.

For the compound `O=Cc1ccco1` [Furfural], the activation at 100 µM under setting [1] is -0.15%. Moreover, under setting [2], the activation turned out to be 69%.

For `COC(OC)c1ccccc1` [Benzaldehyde Dimethyl Acetal], the activation is, setting by setting: under setting [3], -0.68%; under setting [4], 120%.

As to `C=Cc1ccc(O)c(OC)c1` [2-Methoxy-4-Vinylphenol], the activation at 100 µM under setting [1] came to 1.16%. For the same compound, the activation under setting [2] was 71.4%.

Turning to `C=C1CC/C=C(\C)CC[C@@H]2[C@@H]1CC2(C)C` [Beta-Caryophyllene], the activation at 100 µM under setting [1] was found to be 0.21%. Also, under setting [2], the activation was 97.8%.

On to `CC(=O)OC(C)(C)Cc1ccccc1` [Alpha, Alpha Dimethylphenethyl Acetate], for which the activation at 100 µM under setting [1] is -3.2%. Moreover, the activation under setting [2] came out at 72%.

`CCc1ncc(C)nc1CC` [2,3-Diethyl-5-Methylpyrazine]: the activation at 100 µM under setting [1] worked out at 0.99%. The activation under setting [2] was 76.9%.

As for `O=C1NS(=O)(=O)c2ccccc21.[Na]` [Saccharin Sodium], the activation is, setting by setting: under setting [3], -12.4%; under setting [4], 62.5%.

For `COc1cc(C)ccc1C(C)C` [thymyl methyl ether], the activation at 100 µM under setting [1] was -0.16%. Further, the activation under setting [2] came out at 108%.

As to `C=CCOC(=O)CCCCCCCC` [Allyl Nonanoate], under setting [1], the activation at 100 µM is -1.87%. Further, under setting [2], the activation is 69.6%.

With `CCCCCCCCCC(C)C=O` (centres unmarked) [2-Methylundecanal], under setting [1], the activation at 100 µM was 0.82%. For the same compound, the activation under setting [2] was found to be 79.8%.

For `O=C(OCCc1ccccc1)c1ccccc1O` [Phenethyl salicylate], the activation at 100 µM under setting [1] was 7.36%. Further, under setting [2], the activation was 110%.

Consider `O=Cc1ccccc1O` [Salicylaldehyde], for which the activation at 100 µM under setting [1] is 0.01%. Moreover, the activation under setting [2] turned out to be 62.5%.

On to `CC(=O)OCC=Cc1ccccc1` [Cinnamyl Acetate], for which the activation at 100 µM under setting [1] was -0.13%. Further, the activation under setting [2] was determined as 70.1%.

As for `CCCCCCC(=O)OCC` [Ethyl Heptanoate], the activation at 100 µM under setting [1] worked out at 0.23%. In addition, under setting [2], the activation stood at 79%.

`CCCCCCCCCCO` [Material 1-Decanol, 1-Decanol]: the activation at 100 µM under setting [1] was -1.41%. Moreover, the activation under setting [2] amounted to 59.8%.

Take `CCc1cnccn1` [2-Ethylpyrazine]: the activation at 100 µM under setting [1] was -1.56%. Also, the activation under setting [2] worked out at 49.9%.

On to `CCCCC(O)CC` (centres unmarked) [Material 3-Heptanol, 3-Heptanol], for which, under setting [1], the activation at 100 µM was -1.06%. Under setting [2], the activation was found to be 81.3%.

As to `CC/C=C\CCCCC=O` [cis-6-Nonenal], the activation at 100 µM under setting [1] is 2.76%. The activation under setting [2] was determined as 74.7%.

For `Cc1cnc(C)c(C)n1` [2,3,5-Trimethyl-pyrazine], the activation at 100 µM under setting [1] was -1.13%. Also, under setting [2], the activation worked out at 48.8%.

Take `CCC(C)C(=O)OCCC(C)C` (centres unmarked) [3-Methylbutyl-2-Methylbutanoate]: the activation at 100 µM under setting [1] is -1.18%. Also, the activation under setting [2] was 71.4%.

Turning to `CC(C)c1ccc(C=O)cc1` [Cuminaldehyde], the activation at 100 µM under setting [1] was determined as 25.6%. Moreover, the activation under setting [2] was determined as 72.9%.

On to `CCCCOC(=O)CC` [Butyl Propionate], for which the activation at 100 µM under setting [1] was -0.32%. In addition, the activation under setting [2] was 53.4%.

In the case of `CC(=O)c1cc(C)sc1C` [3-Acetyl-2,5-Dimethylthiophene], the activation at 100 µM under setting [1] was 5.75%. Also, the activation under setting [2] worked out at 64.4%.

Regarding `CC(O)C(=O)[O-].CC(O)C(=O)[O-].[Mg+2]` (centres unmarked) [Magnesium Lactate], the “TRPA1 Direct addition” value is listed as −4.49% and the “TRPA1 Pre-incubation” value is reported as 58.12%.

`Cc1cnc(C)cn1` [2,5-Dimethylpyrazine]: the activation at 100 µM under setting [1] is -1.08%. Under setting [2], the activation was 66.8%.

Regarding `CC(=O)O` [Acetic Acid], the activation worked out at 0.27% under setting [3] and 68.5% under setting [4].

With `CC(=O)OCc1ccccc1` [Benzyl Acetate], the activation at 100 µM under setting [1] is -0.31%. Besides, the activation under setting [2] worked out at 74.5%.

Turning to `CSCCCO` [3-(Methylthio) Propanol], the activation at 100 µM under setting [1] is -0.92%. Besides, the activation under setting [2] was determined as 73.1%.

For `CC(=O)OC1CC2CCC1(C)C2(C)C` (centres unmarked) [Bornyl Acetate], the activation at 100 µM under setting [1] is -0.6%. The activation under setting [2] came out at 51.2%.

As to `COc1nccnc1C` [2-Methoxy-3-Methylpyrazine], under setting [1], the activation at 100 µM was -0.83%. For the same compound, under setting [2], the activation came to 84.7%.

As to `CCCCCCCCCCCC(C)=O` [2-Tridecanone], the activation at 100 µM under setting [1] was found to be 7.21%. The activation under setting [2] was found to be 60.8%.

In the case of `Cc1nccnc1C` [2,3-Dimethylpyrazine], the activation at 100 µM under setting [1] is -1.77%. Moreover, under setting [2], the activation was determined as 62.6%.

On to `[O]=[Zn]` [Zinc Oxide], for which the “TRPA1 Direct addition” value was −3.73% and the “TRPA1 Pre-incubation” value was 71.09%.

On to `COc1ccccc1O` [Guaiacol], for which the activation at 100 µM under setting [1] was -0.08%. Besides, the activation under setting [2] was determined as 87.7%.

Turning to `CCC(=O)OC/C=C(\C)CCC=C(C)C` [Geranyl Propionate], the activation at 100 µM under setting [1] worked out at 0.09%. For the same compound, the activation under setting [2] came to 47.9%.

Turning to `CCCCCCCCCCC(=O)O` [Undecanoic Acid], the activation at 100 µM under setting [1] was -14.6%. For the same compound, the activation under setting [2] came to 24.7%.

On to `CC(=O)OC1CC(C)CCC1C(C)C` (centres unmarked) [Menthyl Acetate], for which the activation at 100 µM under setting [1] is -7.24%. For the same compound, the activation under setting [2] amounted to 75.8%.

With `CC(C)C(=O)OCCc1ccccc1` [Phenylethyl Isobutyrate], the activation at 100 µM under setting [1] is -3.56%. Moreover, the activation under setting [2] was found to be 63.9%.

With `CC(C)=CCCC(C)=CCCC(C)=CCO` [Farnesol], under setting [1], the activation at 100 µM turned out to be 0.1%. The activation under setting [2] worked out at 56.6%.

Regarding `CC1=CCC(=C(C)C)CC1` [Terpinolene], under setting [1], the activation at 100 µM was -17.2%. In addition, the activation under setting [2] was 76.2%.

With `O=COCc1ccccc1` [Benzyl Formate], the activation by setting is: under setting [1], -3.01%; under setting [2], 75.3%.

On to `CC(C)=CCCC(C)CCOCC=O` (centres unmarked) [Citronellyl Oxyacetaldehyde], for which the activation at 100 µM under setting [1] was 148%. Under setting [2], the activation was -1.16%.

As to `CCc1ccccc1S` [2-Ethylthiophenol], the activation at 100 µM under setting [1] came to 0.34%. Under setting [2], the activation is 5.23%.

As to `CCCC(=O)OCC` [Ethyl Butyrate], the activation at 100 µM under setting [1] was -0.32%. The activation under setting [2] amounted to 87%.

Consider `OCCc1ccccc1` [Phenyl Ethyl Alcohol], for which the activation at 100 µM under setting [1] was -4.77%. In addition, the activation under setting [2] is 55%.

As to `CC(=O)c1ccccc1` [Acetophenone], the activation at 100 µM under setting [1] worked out at 0.64%. In addition, under setting [2], the activation is 81.1%.

In the case of `CCOCc1ccccc1` [Benzyl Ethyl Ether], the activation at 100 µM under setting [1] is -2.24%. Also, the activation under setting [2] came out at 66.2%.
